Source: US9447135B2, “Semi-synthetic mithramycin derivatives with anti-cancer activity” (UNIVERSITY OF KENTUCKY RESEARCH FOUNDATION, priority 2012, dated 2016)

Experiments:
[1] = system: A673 Ewing sarcoma cell line; assay: 72 hour cytotoxicity, A673; type: cell-based; conditions: Ewing sarcoma cell line A673, 72 hour
Experimental: (§1) The cytotoxicity of a subgroup of the MTM SA analogues was tested against various Ewing sarcoma cell lines and non-Ewing sarcoma cell lines over a 72 hour period. Each analogue was checked individually with a range of concentrations to determine the IC50 of the molecule in actively growing cell cultures.

[2] = system: RDES Ewing sarcoma cell line; assay: 72 hour cytotoxicity, RDES; type: cell-based
Experimental: as §1

[3] = 72 hour cytotoxicity, RH30; type: cell-based; conditions: Ewing sarcoma cell line RH30, 72 hour; read-out: IC50 (nM) RH 30
Experimental: as §1

[4] = system: ES-2 Ewing sarcoma cell line; assay: 72 hour cytotoxicity, ES-2; type: cell-based; conditions: Ewing sarcoma cell line ES-2, 72 hour
Experimental: as §1

[5] = system: ES-3 Ewing sarcoma cell line; assay: 72 hour cytotoxicity, ES-3; type: cell-based; conditions: Ewing sarcoma cell line ES-3, 72 hour
Experimental: as §1

[6] = system: ES-4 Ewing sarcoma cell line; assay: 72 hour cytotoxicity, ES-4; type: cell-based; conditions: Ewing sarcoma cell line ES-4, 72 hour
Experimental: as §1

[7] = system: ES-7 Ewing sarcoma cell line; assay: 72 hour cytotoxicity, ES-7; type: cell-based; conditions: Ewing sarcoma cell line ES-7, 72 hour
Experimental: as §1

[8] = system: ES-8 Ewing sarcoma cell line; assay: 72 hour cytotoxicity, ES-8; type: cell-based; conditions: Ewing sarcoma cell line ES-8, 72 hour
Experimental: as §1

[9] = system: A549, human non-small cell lung cancer cells; assay: 72 hour cytotoxicity, A549 (resazurin); type: cell-based; conditions: non-Ewing sarcoma cell line A549, 72 hour
Experimental: The cytotoxic effects of the side chain modifications of SA were investigated in order to determine whether the modification were beneficial to the drug structure. All cytotoxicity assays were performed with A549, human non-small cell lung cancer cells. A549 cells were cultured as specified from ATCC at 37° C., 5% CO2. The cells were added to a 96 well plate (5,000 cells/well) and permitted to attach for 24 h. After 24 h culture media were replaced with the side chain modified MTM SA derivative containing media at differing concentrations. The cells were incubated with the drug containing media for 72 hrs total (n=8). Cell viability was determined using a resazurin assay that signifies mitochondrial metabolic activity in living cells. […] of a 1 mM resazurin solution in PBS was added to the control and analogue-treated cells at the end of the treatment period. Cell viability was determined three hours later by reading the fluorescence at 560 nm (Ex)/590 nm (Em). The fluorescence signals were quantified using a Spectramax M5 plate reader (Molecular Devices) equipped with a SoftMaxPro software. Cytotoxicity was determined by calculating the half maximal inhibitory concentration (IC50) of each sample.
as §1

[10] = system: VCaP non-Ewing sarcoma cell line; assay: 72 hour cytotoxicity, VCaP; type: cell-based
Experimental: as §1

[11] = system: HCT-116 non-Ewing sarcoma cell line; assay: 72 hour cytotoxicity, HCT-116; type: cell-based; conditions: non-Ewing sarcoma cell line HCT-116, 72 hour
Experimental: as §1

[12] = system: Ewing sarcoma (TC32, 5838, SKES1) and non-Ewing (A459 (lung) and PC3 (prostate)) cancer cell lines; assay: Selectivity assay, Ewing sarcoma versus non-Ewing cell panel (72 hr cytotoxicity); conditions: compared with other MTM SA derivatives; FIG. 10

`COC(=O)[C@H](Cc1ccccc1)NC(=O)[C@@H](OC)[C@@H]1Cc2cc3cc(O[C@H]4C[C@@H](O[C@H]5C[C@@H](O)[C@H](O)[C@@H](C)O5)[C@H](O)[C@@H](C)O4)c(C)c(O)c3c(O)c2C(=O)[C@H]1O[C@H]1C[C@@H](O[C@H]2C[C@@H](O[C@H]3C[C@](C)(O)[C@H](O)[C@@H](C)O3)[C@H](O)[C@@H](C)O2)[C@H](O)[C@@H](C)O1` [MTMSA-Phe] gave an IC50 [1] of 109 nM, an IC50 [2] of 94 nM and an IC50 [3] of 136 nM. It also gave an IC50 [4] of 182 nM, an IC50 [5] of 363 nM and an IC50 [6] of 35 nM. For the same compound, the IC50 [7] was 61 nM, the IC50 [8] was 59 nM and the IC50 [9] was 398 nM. For the same compound, the IC50 [10] was 32 nM, the IC50 [11] was 21 nM and the “potency and selectivity in killing of Ewing sarcoma cells” value [12] was “even more potent and highly selective in killing of Ewing sarcoma cells than other MTM SA derivatives”.
